The target of the test is T1, ITK (Homo sapiens, UniProt Q08881).
T1 sequence (Q08881 1-620): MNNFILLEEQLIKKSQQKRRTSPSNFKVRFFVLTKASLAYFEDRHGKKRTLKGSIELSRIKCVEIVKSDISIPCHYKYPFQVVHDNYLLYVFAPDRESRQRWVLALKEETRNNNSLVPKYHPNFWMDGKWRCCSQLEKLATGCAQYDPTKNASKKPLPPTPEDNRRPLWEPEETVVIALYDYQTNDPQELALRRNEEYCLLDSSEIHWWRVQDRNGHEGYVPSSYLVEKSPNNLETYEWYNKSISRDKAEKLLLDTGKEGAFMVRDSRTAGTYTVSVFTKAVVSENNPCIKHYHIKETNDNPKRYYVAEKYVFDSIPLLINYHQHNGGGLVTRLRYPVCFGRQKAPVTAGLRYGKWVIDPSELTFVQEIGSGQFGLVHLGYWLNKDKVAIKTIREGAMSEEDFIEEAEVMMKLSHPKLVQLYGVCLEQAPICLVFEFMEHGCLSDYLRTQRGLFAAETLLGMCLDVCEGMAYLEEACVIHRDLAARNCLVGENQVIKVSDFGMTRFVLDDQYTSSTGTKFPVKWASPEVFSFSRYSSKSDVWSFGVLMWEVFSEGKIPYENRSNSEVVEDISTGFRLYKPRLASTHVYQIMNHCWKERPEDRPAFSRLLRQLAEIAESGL
Kind of test: ITK degradation HiBiT assay. The settings on record: 4 hrs; for Dmax: MOLT-4, C-terminal HiBiT-tagged Molt4 cells. The arrangement: expressed in transfected cells; host or cells: Molt4 (ATCC CRL-1552), monoclonal clone 1C10, engineered to carry the HiBiT tag. It counts as cell-based. The procedure, abridged: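 C-terminal HiBiT-tagged Molt4 cells (clone 1C10) treated 4 h at 32° C with an 11-point, 5-fold compound dilution series (0.5% DMSO). HiBiT lytic detection with LgBiT then luminescence read; % ITK remaining versus concentration fit by four-parameter variable-slope model to give DC50 and Dmax.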

Where [1] appears, read: C-terminal HiBiT-tagged Molt4 cells.

For orientation: DC50 means the concentration at which degradation of the target reaches its halfway point. A lower DC50 goes with a more potent degrader. What is called Dmax is the greatest extent of degradation seen.

Under setting [1], `CN(C(=O)CCC1CCN(c2ccc(C3CCC(=O)NC3=O)cn2)CC1)c1ccc2cc(-c3n[nH]c4c3C[C@@H]3C(F)(F)[C@]3(C)C4)[nH]c2c1` (stereo partly drawn) [Compound 21, N-(2-((4aS,5aR)-5,5-difluoro-5a-methyl-1,4,4a,5,5a,6-hexahydrocyclopropa[f]indazol-3-yl)-1H-indol-6-yl)-3-(1-(5-(2,6-dioxopiperidin-3-yl)pyridin-2-yl)piperidin-4-yl)-N-methylpropanamide] registered a DC50 of 0.01 nM.

For the compound `C[C@@]12Cc3[nH]nc(C(=O)Nc4cnn(CC5CN(C(=O)C6CN(c7ccc(C8CCC(=O)NC8=O)cn7)C6)C5)c4)c3C[C@@H]1C2(F)F` (stereo partly drawn) [Compound 49, (4aS,5aR)-N-(1-((1-(1-(5-(2,6-dioxopiperidin-3-yl)pyridin-2-yl)azetidine-3-carbonyl)azetidin-3-yl)methyl)-1H-pyrazol-4-yl)-5,5-difluoro-5a-methyl-1,4,4a,5,5a,6-hexahydrocyclopropa[f]indazole-3-carboxamide], it took 3.9 nM to reach half-maximal degradation under setting [1] (DC50).

As to `CC1(C)CCc2c(-c3cc4ccc(C(=O)N5CCN(CC6CCN(c7ccc(C8CCC(=O)NC8=O)cn7)CC6)CC5)cc4[nH]3)n[nH]c2C1` (stereo not shown) [Compound 47, 3-(6-(4-((4-(2-(6,6-dimethyl-4,5,6,7-tetrahydro-1H-indazol-3-yl)-1H-indole-6-carbonyl)piperazin-1-yl)methyl)piperidin-1-yl)pyridin-3-yl)piperidine-2,6-dione], it took 4.6 nM to reach half-maximal degradation under setting [1] (DC50).

`C[C@@H](C(=O)N(C)c1ccc2cc(-c3n[nH]c4c3CCC(C)(C)C4)[nH]c2c1)N1CCN(C[C@H]2CCN(c3ccc4c(c3)C(=O)N(C3CCC(=O)NC3=O)C4=O)C2)CC1` (stereo partly drawn) [Compound 33, (2S)—N-(2-(6,6-dimethyl-4,5,6,7-tetrahydro-1H-indazol-3-yl)-1H-indol-6-yl)-2-(4-(((3R)-1-(2-(2,6-dioxopiperidin-3-yl)-1,3-dioxoisoindolin-5-yl)pyrrolidin-3-yl)methyl)piperazin-1-yl)-N-methylpropanamide] returned a Dmax of 85%. Further, half-maximal degradation under setting [1] (DC50) was put at 3.4 nM.

On to `C[C@@H](C(=O)N(C)c1ccc2cc(-c3n[nH]c4c3C[C@@H]3C(F)(F)[C@]3(C)C4)[nH]c2c1)N1CCN(CC2CCN(c3ccc(N4CCC(=O)NC4=O)cn3)CC2)CC1` [Compound 18, (S)—N-(2-((4aS,5aR)-5,5-difluoro-5a-methyl-1,4,4a,5,5a,6-hexahydrocyclopropa[f]indazol-3-yl)-1H-indol-6-yl)-2-(4-((1-(5-(2,4-dioxotetrahydropyrimidin-1(2H)-yl)pyridin-2-yl)piperidin-4-yl)methyl)piperazin-1-yl)-N-methylpropanamide], for which, under setting [1], half-maximal degradation (DC50) was put at 0.004 nM.

With `C[C@@]12Cc3[nH]nc(C(=O)Nc4cnn(CC5CN(C(=O)C6CN(C7CCN(c8ccc9c(c8)C(=O)N(C8CCC(=O)NC8=O)C9=O)CC7)C6)C5)c4)c3C[C@@H]1C2(F)F` (stereo partly drawn) [Compound 42, (4aS,5aR)-N-(1-((1-(1-(1-(2-(2,6-dioxopiperidin-3-yl)-1,3-dioxoisoindolin-5-yl)piperidin-4-yl)azetidine-3-carbonyl)azetidin-3-yl)methyl)-1H-pyrazol-4-yl)-5,5-difluoro-5a-methyl-1,4,4a,5,5a,6-hexahydrocyclopropa[f]indazole-3-carboxamide], the greatest degradation seen (Dmax) worked out at 93%. Moreover, under setting [1], the DC50 came to 2.9 nM.

Under setting [1], `C[C@@H](C(=O)N(C)c1ccc2cc(-c3n[nH]c4c3CCC(C)(C)C4)[nH]c2c1)N1CCN(CC2CCN(c3ccc(N4CCC(=O)NC4=O)cn3)CC2)CC1` [Compound 11, (S)—N-(2-(6,6-dimethyl-4,5,6,7-tetrahydro-1H-indazol-3-yl)-1H-indol-6-yl)-2-(4-((1-(5-(2,4-dioxotetrahydropyrimidin-1(2H)-yl)pyridin-2-yl)piperidin-4-yl)methyl)piperazin-1-yl)-N-methylpropanamide] yielded a DC50 of 2 nM.

Compound `CN(C(=O)CC[C@H]1CCN(c2ccc3c(c2)C(=O)N(C2CCC(=O)NC2=O)C3=O)C1)c1ccc2cc(-c3n[nH]c4c3C[C@@H]3C(F)(F)[C@]3(C)C4)[nH]c2c1` (stereo in doubt) [Compound 67, N-(2-((4aS,5aR)-5,5-difluoro-5a-methyl-1,4,4a,5,5a,6-hexahydrocyclopropafindazol-3-yl)-1H-indol-6-yl)-3-((3R)-1-(2-(2,6-dioxopiperidin-3-yl)-1,3-dioxoisoindolin-5-yl)pyrrolidin-3-yl)-N-methylpropanamide] came in with a Dmax of 75%. Moreover, it took 2.3 nM to reach half-maximal degradation under setting [1] (DC50).

In turn, `C[C@@H](C(=O)N(C)c1ccc2cc(-c3n[nH]c4c3CCC(C)(C)C4)[nH]c2c1)N1CCN(CC2CCN(c3ccc(C4CCC(=O)NC4=O)cn3)CC2)CC1` (stereo partly drawn) [Compound 10, (2S)—N-(2-(6,6-dimethyl-4,5,6,7-tetrahydro-1H-indazol-3-yl)-1H-indol-6-yl)-2(4-((1-(5-(2,6-dioxopiperidin-3-yl)pyridin-2-yl)piperidin-4-yl)methyl)piperazin-1-yl)-N-methylpropanamide] registered a 50% degradation concentration (DC50) under setting [1] of 0.48 nM.

The compound `C[C@@]12Cc3[nH]nc(-c4cc5ccc(N6CCC7(CCN(CC8CCN(c9ccc(C%10CCC(=O)NC%10=O)cn9)CC8)CC7)C6=O)cc5[nH]4)c3C[C@@H]1C2(F)F` (stereo partly drawn) [Compound 19, 3-(6-(4-((2-(2-((4aS,5aR)-5,5-difluoro-5a-methyl-1,4,4a,5,5a,6-hexahydrocyclopropa[f]indazol-3-yl)-1H-indol-6-yl)-1-oxo-2,8-diazaspiro[4.5]decan-8-yl)methyl)piperidin-1-yl)pyridin-3-yl)piperidine-2,6-dione] came in with a DC50 under setting [1] of 0.27 nM.

`CN(C(=O)CC1CCN(CC2CCN(c3ccc(C4CCC(=O)NC4=O)cn3)CC2)CC1)c1ccc2cc(-c3n[nH]c4c3C[C@@H]3C(F)(F)[C@]3(C)C4)[nH]c2c1` (stereo partly drawn) [Compound 73, N-(2-((4aS,5aR)-5,5-difluoro-5a-methyl-1,4,4a,5,5a,6-hexahydrocyclopropa[f]indazol-3-yl)-1H-indol-6-yl)-2-(1-((1-(5-(2,6-dioxopiperidin-3-yl)pyridin-2-yl)piperidin-4-yl)methyl)piperidin-4-yl)-N-methylacetamide]: the DC50 under setting [1] stood at 1.6 nM.

For `CN(C(=O)CC[C@H]1CCN(c2ccc3c(c2)C(=O)N(C2CCC(=O)NC2=O)C3=O)C1)c1ccc2cc(-c3n[nH]c4c3C[C@@H]3C(F)(F)[C@]3(C)C4)[nH]c2c1` (stereo in doubt) [Compound 68], under setting [1], half-maximal degradation (DC50) was put at 0.5 nM and the “HiBiT DMax (%)” value came to 78%.

For `C[C@@]12Cc3[nH]nc(C(=O)Nc4cnn(CC5CN(C(=O)C6CCN(c7ccc(C8CCC(=O)NC8=O)cn7)CC6)C5)c4)c3C[C@@H]1C2(F)F` (stereo partly drawn) [Compound 50, (4aS,5aR)-N-(1-((1-(1-(5-(2,6-dioxopiperidin-3-yl)pyridin-2-yl)piperidine-4-carbonyl)azetidin-3-yl)methyl)-1H-pyrazol-4-yl)-5,5-difluoro-5a-methyl-1,4,4a,5,5a,6-hexahydrocyclopropa[f]indazole-3-carboxamide], it took 0.21 nM to reach half-maximal degradation under setting [1] (DC50).

In turn, `Cn1c(=O)n(C2CCC(=O)NC2=O)c2ccc(N3CCC(CN4CCC5(CC4)CCN(c4ccc6cc(-c7n[nH]c8c7CCC(C)(C)C8)[nH]c6c4)C5=O)CC3)cc21` (stereo not shown) [Compound 14, 3-(5-(4-((2-(2-(6,6-dimethyl-4,5,6,7-tetrahydro-1H-indazol-3-yl)-1H-indol-6-yl)-1-oxo-2,8-diazaspiro[4.5]decan-8-yl)methyl)piperidin-1-yl)-3-methyl-2-oxo-2,3-dihydro-1H-benzo[d]imidazol-1-yl)piperidine-2,6-dione] yielded a Dmax of 89%. Further, under setting [1], half-maximal degradation (DC50) was put at 0.16 nM.

(Values after patent publication US20240279202A1 (NURIX THERAPEUTICS, INC., priority 2021, published 2024).)
